The values that follow come from patent US8623340B2, “Omega-cyclohexylalkan-1-oles and use thereof as antimicrobial actives to combat body odor” (Symrise AG, priority 2009, dated 2014).

Common to all, as to format: cell-based
Test [1] deals with Corynebacterium xerosis (DSM 20743, ATCC 373) biofilm. As to the kind of experiment: Biofilm formation, classic assay (crystal violet staining CV580). As to conditions: 12.5 μg/ml. The source says:
The recognition that the compounds of formula (I) are also very particularly suitable for either inhibition of initial biofilm formation and stagnation or even detachment of pre-existing biofilms is based on a series of investigations relating to the particularly relevant microorganism Corynebacterium xerosis. The antimicrobial action of the compounds of formula (I) on biofilms is hereby detected with the assistance of a staining method. Crystal violet staining is used to quantify amount of biofilm in the presence and absence of an antimicrobial active ingredient. A possible inhibitory action of the test substance used is identified from the staining profile. Corynebacterium xerosis can adhere to artificial laboratory surfaces and contribute to biofilm formation much the same way as it can do on skin in vivo. Therefore we furtheron established a test system to evaluate the influence of antimicrobial active compounds of formula (I) on Corynebacterium xerosis forming a biofilm or already residing in a biofilm. […] Biofilm formation can be analyzed by crystal violet staining with subsequent spectroscopic quantitation at 580 nm (CV580). […] Anti-microbial effects of test compounds on biofilm formation was determined by CV580 crystal violet staining 18-24 hours after inoculation and several washing steps that are needed to separate planctonic grown microorganisms.

Test [2] concerns Corynebacterium xerosis (DSM 20743). As to the kind of experiment: MIC determination by turbidimetric growth curves. As to conditions: 16 h, 37° C., turbidimetry 620 nm. The source says:
(§1) The observation that the compounds of formula (I) are very particularly suitable for combating microorganisms which are responsible for body odor is based on a series of investigations relating to the particularly relevant microorganisms Staphylococcus epidermidis Corynebacterium xerosis, and Brevibacterium epidermidis. The antimicrobial action of the compounds of formula (I) is here detected with the assistance of a turbidimetric measurement method. Turbidity measurement is used to establish growth curves for the particular microorganism in the presence and absence of an antimicrobial active ingredient. A possible inhibitory action of the test substance used is identified from the profile of the growth curves. Solutions with saline or DMSO for 100% growth are prepared as a negative control. The active substances to be investigated are first diluted in DMSO in reaction vessels. Dilution is carried out in accordance with the concentration range to be tested and corresponds in each case to 100 times the concentration of the subsequent final concentration in the test Testing is usually begun with a final concentration of 2000 ppm (corresponding to 0.2 wt.-%) in the test. Growth curves at final concentrations of 1000 ppm, 500 ppm, 250 ppm, 125 ppm, 64 ppm, 32 ppm, 16 ppm and 8 ppm are subsequently determined. The bacterial cultures are then incubated in the presence of the various final concentrations of antimicrobial active ingredient for 16 h (incubation temperature: 37° C.). The absorption values (wavelength 620 nm; measurement interval: 20 minutes) obtained over the 16 hour period of turbidimetric measurement are recorded and exported into the spreadsheet program MS Excel. Means from in each case three parallel batches are calculated and used as the basis for establishing growth curves. The curves of the individual test sample concentrations are compared with those for the negative controls and the MIC value (minimum inhibitory concentration) is determined. The MIC value is the concentration at which no further growth is observable by turbidimetry.

In test [3] the test system is Staphylococcus epidermidis (ATCC 12228). Kind of test: MIC determination by turbidimetric growth curves. As to conditions: ATCC12228, 16 h, 37° C., turbidimetry 620 nm, read-out: MIC (complete inhibition of growth, usage concentration).
Text: as §1

The test system of test [4] is Brevibacterium epidermidis (ATCC 35514). As to the kind of experiment: MIC determination by turbidimetric growth curves. As to conditions: 16 h, 37° C., turbidimetry 620 nm.
Text: as §1

The test system is the same in test [5]. As to the kind of experiment: quantitative suspension test.
The test system of test [6] is Staphylococcus epidermidis (ATCC 12228). As to the kind of experiment: quantitative suspension test.
Test [7] concerns Corynebacterium xerosis (DSM 20743, ATCC 373) biofilm. As to the kind of experiment: Biofilm, mid-log assay on pre-existing biofilm (crystal violet staining CV580). As to conditions: 12.5 μg. From the text:
The recognition that the compounds of formula (I) are also very particularly suitable for either inhibition of initial biofilm formation and stagnation or even detachment of pre-existing biofilms is based on a series of investigations relating to the particularly relevant microorganism Corynebacterium xerosis. The antimicrobial action of the compounds of formula (I) on biofilms is hereby detected with the assistance of a staining method. Crystal violet staining is used to quantify amount of biofilm in the presence and absence of an antimicrobial active ingredient. A possible inhibitory action of the test substance used is identified from the staining profile. […] Biofilm formation can be analyzed by crystal violet staining with subsequent spectroscopic quantitation at 580 nm (CV580). […] Optical density OD580 was then measured followed by crystal violet staining and spectroscopic quantitation of the biofilm at 580 nm (CV580). Mid-log time point was determined by cultivating untreated C. xerosis cells on separate control plates. CV580 crystal violet staining data of untreated control cells at mid-log were recorded. […] CV580 of untreated control samples was also recorded. […] Thus, untreated control cells will reach a value of 200%, corresponding to twice the exactly determined mid-log time point (half-maximal values for CV580; which was set 100%). […]

Test [8] deals with Corynebacterium xerosis (DSM 20743). Kind of test: quantitative suspension test.

SMILES strings stand for the structures. Values after ≈ are worked out from the molar mass of the structure shown.

Consider `CC(CO)CCCC1CCCCC1` (stereo not shown) [5-cyclohexyl-2-methyl-pentanol], for which, in test [1], the biofilm formation inhibition amounted to 92%. Besides, the “concentration establishing inhibition of the growth” value in test [2] and in test [4] was “below 0.2 wt. %” in each case. Moreover, in test [3], the MIC is 64 µg/mL (≈ 347 µM). Moreover, the “antimicrobial activity in quantitative suspension test” value in test [5], in test [6] and in test [8] was “confirm the antimicrobial activity” in each case. The “biofilm observed compared to the untreated control (set to 200%; mid-log value 100%)” value in test [7] is 53%.
On to `CCCC(CO)CCCC1CCCCC1` (stereo not shown) [5-cyclohexyl-2-n-propyl-pentanol], for which, in test [1], the biofilm formation inhibition is given as 65%. The “concentration establishing inhibition of the growth” value in test [2] and in test [4] was “below 0.2 wt. %” each time. Also, the MIC in test [3] came out at 16 µg/mL (≈ 75.3 µM). Besides, the “antimicrobial activity in quantitative suspension test” value in test [5], in test [6] and in test [8] was “confirm the antimicrobial activity” each time. Also, the “biofilm observed compared to the untreated control (set to 200%; mid-log value 100%)” value in test [7] is 100%.
